# Results taken from patent publication US20230270748A1, “COMBINATION OF A BCL-2 INHIBITOR AND A HYPOMETHYLATING AGENT FOR TREATING CANCERS, USES AND PHARMACEUTICAL COMPOSITIONS THEREOF” (LES LABORATOIRES SERVIER, priority 2020, published 2023).
# Assays:
# Type in all cases: cell-based
# AML cell line HL-60 = assay: Cell viability (CellTiterGlo, 3 days), single agents and combination, in HL-60; details: Homo sapiens, 72 h; HL-60, single agent, 3 days incubation, CTG signal
# AML cell line EOL-1 = assay: Cell viability (CellTiterGlo, 3 days), single agents and combination, in EOL-1; details: Homo sapiens, EOL1, 72 h; EOL-1, single agent, 3 days incubation, CTG signal
# AML cell line OCI-AML3 = assay: Cell viability (CellTiterGlo, 3 days), single agents and combination, in OCI-AML3; details: Homo sapiens, OCI-AML-3, 72 h; OCI-AML3, single agent, 3 days incubation, CTG signal
# AML cell line MV4;11 = assay: Cell viability (CellTiterGlo, 3 days), single agents and combination, in MV4;11; details: Homo sapiens, 72 h; MV4;11, single agent, 3 days incubation, CTG signal
IC50 (AML cell line HL-60) [nM],IC50 (AML cell line OCI-AML3) [nM],IC50 (AML cell line MV4;11) [nM],Compound,IC50 (AML cell line EOL-1) [nM]
> 10000,7100,689,"Nc1ncn([C@@H]2O[C@H](CO)[C@@H](O)[C@H]2O)c(=O)n1 [5-azacitidine, azacitidine]",187
3100,5690,3,"Cc1c(N(C(=O)c2cc(-c3cc(Cl)ccc3C(=O)N3Cc4ccccc4C[C@H]3CN3CCOCC3)n(C)c2C)c2ccc(O)cc2)cc(C#N)n1C [Compound A, 5-(5-chloro-2-{[(3S)-3-(morpholin-4-ylmethyl)-3,4-dihydroisoquinolin-2(1H)-yl]carbonyl}phenyl)-N-(5-cyano-1,2-dimethyl-1H-pyrrol-3-yl)-N-(4-hydroxyphenyl)-1,2-dimethyl-1H-pyrrole-3-carboxamide]",18
